system: HEK293 cells; test: Preliminary screening as mRNA vectors, EGFP mRNA transfection of HEK293 cells; format: cell-based; settings: HEK293 cells, 96-well plates, EGFP mRNA 50 ng per well; percentage of GFP fluorescent cells relative to total number of cells (Hoechst)
How it was run: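 Screening format: EGFP mRNA transfection (50 ng/well) into HEK293 in 10% FBS-supplemented DMEM. Percent green fluorescent cells, normalised to Hoechst nuclear count, gave the value; Lipofectamine2000 was the reference transfectant.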

| SMILES | Absolute mRNA transfection efficiency in HEK293 cells |
| --- | --- |
| CCCCCCCCCCCCCCCSc1nc(NCCN2CCOCC2)nc(SCCCCCCCCCCCCCC)n1 [Compound S14S15D2] | 0.0% |
| CCCCCCCCCCCCCCCSc1nc(NCCN2CCCC2)nc(SCCCCCCCCCCCCCC)n1 [Compound S14S15D3] | 0.0% |
| CCCCCCCCCCCCCCCSc1nc(NCCN2CCCCC2)nc(SCCCCCCCCCCCCCC)n1 [Compound S14S15D4] | 0.1% |
| CCCCCCCCCCCCCCCSc1nc(NCCN2CCN(C)CC2)nc(SCCCCCCCCCCCCCC)n1 [Compound S14S15D5] | 0.0% |
| CCCCCCCCCCCCCCCSc1nc(NCCCN(C)C)nc(SCCCCCCCCCCCCCC)n1 [Compound S14S15D6] | 0.1% |
| CCCCCCCCCCCCCCCSc1nc(NCCN(CC)CC)nc(SCCCCCCCCCCCCCC)n1 [Compound S14S15D7] | 0.4% |
| CCCCCCCCCCCCCCCSc1nc(NCCCN2CCOCC2)nc(SCCCCCCCCCCCCCC)n1 [Compound S14S15D8] | 0.0% |
| CCCCCCCCCCCCCCCSc1nc(NCCCN2CCN(C)CC2)nc(SCCCCCCCCCCCCCC)n1 [Compound S14S15D9] | 0.0% |
| CCCCCCCCCCCCCCCSc1nc(NCC2CCN(C)CC2)nc(SCCCCCCCCCCCCCC)n1 [Compound S14S15D10] | 0.5% |
| CCCCCCCCCCCCCCCCSc1nc(NCCN(C)C)nc(SCCCCCCCCCCCCCC)n1 [Compound S14S16D1] | 0.0% |
| CCCCCCCCCCCCCCCCSc1nc(NCCN2CCOCC2)nc(SCCCCCCCCCCCCCC)n1 [Compound S14S16D2] | 0.0% |
| CCCCCCCCCCCCCCCCSc1nc(NCCN2CCCC2)nc(SCCCCCCCCCCCCCC)n1 [Compound S14S16D3] | 0.2% |
| CCCCCCCCCCCCCCCCSc1nc(NCCN2CCCCC2)nc(SCCCCCCCCCCCCCC)n1 [Compound S14S16D4] | 0.0% |
| CCCCCCCCCCCCCCCCSc1nc(NCCN2CCN(C)CC2)nc(SCCCCCCCCCCCCCC)n1 [Compound S14S16D5] | 0.2% |
| CCCCCCCCCCCCCCCCSc1nc(NCCCN(C)C)nc(SCCCCCCCCCCCCCC)n1 [Compound S14S16D6] | 0.9% |
| CCCCCCCCCCCCCCCCSc1nc(NCCN(CC)CC)nc(SCCCCCCCCCCCCCC)n1 [Compound S14S16D7] | 1.8% |
| CCCCCCCCCCCCCCCCSc1nc(NCCCN2CCOCC2)nc(SCCCCCCCCCCCCCC)n1 [Compound S14S16D8] | 0.0% |
| CCCCCCCCCCCCCCCCSc1nc(NCCCN2CCN(C)CC2)nc(SCCCCCCCCCCCCCC)n1 [Compound S14S16D9] | 0.0% |
| CCCCCCCCCCCCCCCCSc1nc(NCC2CCN(C)CC2)nc(SCCCCCCCCCCCCCC)n1 [Compound S14S16D10] | 0.8% |
| CCCCCCCCCCCCCCCCCCSc1nc(NCCN(C)C)nc(SCCCCCCCCCCCCCC)n1 [Compound S14S18D1] | 0.0% |

| SMILES | Absolute mRNA transfection efficiency in HEK293 cells |
| --- | --- |
| CCCCCCCCCCCCCCCCCCSc1nc(NCCN2CCOCC2)nc(SCCCCCCCCCCCCCC)n1 [Compound S14S18D2] | 0.0% |
| CCCCCCCCCCCCCCCCCCSc1nc(NCCN2CCCC2)nc(SCCCCCCCCCCCCCC)n1 [Compound S14S18D3] | 0.1% |
| CCCCCCCCCCCCCCCCCCSc1nc(NCCN2CCCCC2)nc(SCCCCCCCCCCCCCC)n1 [Compound S14S18D4] | 0.8% |
| CCCCCCCCCCCCCCCCCCSc1nc(NCCN2CCN(C)CC2)nc(SCCCCCCCCCCCCCC)n1 [Compound S14S18D5] | 1.0% |
| CCCCCCCCCCCCCCCCCCSc1nc(NCCCN(C)C)nc(SCCCCCCCCCCCCCC)n1 [Compound S14S18D6] | 0.2% |
| CCCCCCCCCCCCCCCCCCSc1nc(NCCN(CC)CC)nc(SCCCCCCCCCCCCCC)n1 [Compound S14S18D7] | 2.7% |
| CCCCCCCCCCCCCCCCCCSc1nc(NCCCN2CCOCC2)nc(SCCCCCCCCCCCCCC)n1 [Compound S14S18D8] | 0.3% |
| CCCCCCCCCCCCCCCCCCSc1nc(NCCCN2CCN(C)CC2)nc(SCCCCCCCCCCCCCC)n1 [Compound S14S18D9] | 0.6% |
| CCCCCCCCCCCCCCCCCCSc1nc(NCC2CCN(C)CC2)nc(SCCCCCCCCCCCCCC)n1 [Compound S14S18D10] | 1.5% |
| CCCCCCCCCCCCCCCSc1nc(NCCN(C)C)nc(SCCCCCCCCCCCCCCC)n1 [Compound S15S15D1] | 0.5% |
| CCCCCCCCCCCCCCCSc1nc(NCCN2CCOCC2)nc(SCCCCCCCCCCCCCCC)n1 [Compound S15S15D2] | 0.0% |
| CCCCCCCCCCCCCCCSc1nc(NCCN2CCCC2)nc(SCCCCCCCCCCCCCCC)n1 [Compound S15S15D3] | 0.2% |
| CCCCCCCCCCCCCCCSc1nc(NCCN2CCCCC2)nc(SCCCCCCCCCCCCCCC)n1 [Compound S15S15D4] | 1.5% |
| CCCCCCCCCCCCCCCSc1nc(NCCN2CCN(C)CC2)nc(SCCCCCCCCCCCCCCC)n1 [Compound S15S15D5] | 0.3% |
| CCCCCCCCCCCCCCCSc1nc(NCCCN(C)C)nc(SCCCCCCCCCCCCCCC)n1 [Compound S15S15D6] | 0.9% |
| CCCCCCCCCCCCCCCSc1nc(NCCN(CC)CC)nc(SCCCCCCCCCCCCCCC)n1 [Compound S15S15D7] | 0.5% |
| CCCCCCCCCCCCCCCSc1nc(NCCCN2CCOCC2)nc(SCCCCCCCCCCCCCCC)n1 [Compound S15S15D8] | 0.2% |
| CCCCCCCCCCCCCCCSc1nc(NCCCN2CCN(C)CC2)nc(SCCCCCCCCCCCCCCC)n1 [Compound S15S15D9] | 0.5% |
| CCCCCCCCCCCCCCCSc1nc(NCC2CCN(C)CC2)nc(SCCCCCCCCCCCCCCC)n1 [Compound S15S15D10] | 0.3% |
| CCCCCCCCCCCCCCCCSc1nc(NCCN(C)C)nc(SCCCCCCCCCCCCCCC)n1 [Compound S15S16D1] | 0.7% |

system: HEK293 cells; test: Preliminary screening as DNA vectors, GFP transfection of HEK293 cells; format: cell-based; settings: HEK293 cells; lipid/DOPE liposome with 75 ng plasmid DNA (psin-EGFP-IRES-Puro); number of cells expressing GFP divided by total number of nuclei (Hoechst)
How it was run: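 First, amino lipid and DOPE were vortexed in sodium acetate buffer (pH 5.6) to form liposomes. Next, these were held with 75 ng EGFP plasmid at room temperature for 30 min. Finally, HEK293 cells were added, cultured at 37° C., Hoechst-stained, and GFP+/total nuclei scored by imaging.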

| SMILES | Absolute DNA transfection efficiency in HEK293 cells |
| --- | --- |
| CCCCCCCCCCCCCCCSc1nc(NCCN2CCOCC2)nc(SCCCCCCCCCCCCCC)n1 [Compound S14S15D2] | 0.1% |
| CCCCCCCCCCCCCCCSc1nc(NCCN2CCCC2)nc(SCCCCCCCCCCCCCC)n1 [Compound S14S15D3] | 0.3% |
| CCCCCCCCCCCCCCCSc1nc(NCCN2CCCCC2)nc(SCCCCCCCCCCCCCC)n1 [Compound S14S15D4] | 0.7% |
| CCCCCCCCCCCCCCCSc1nc(NCCN2CCN(C)CC2)nc(SCCCCCCCCCCCCCC)n1 [Compound S14S15D5] | 0.0% |
| CCCCCCCCCCCCCCCSc1nc(NCCCN(C)C)nc(SCCCCCCCCCCCCCC)n1 [Compound S14S15D6] | 0.2% |
| CCCCCCCCCCCCCCCSc1nc(NCCN(CC)CC)nc(SCCCCCCCCCCCCCC)n1 [Compound S14S15D7] | 0.6% |
| CCCCCCCCCCCCCCCSc1nc(NCCCN2CCOCC2)nc(SCCCCCCCCCCCCCC)n1 [Compound S14S15D8] | 0.0% |
| CCCCCCCCCCCCCCCSc1nc(NCCCN2CCN(C)CC2)nc(SCCCCCCCCCCCCCC)n1 [Compound S14S15D9] | 0.0% |
| CCCCCCCCCCCCCCCSc1nc(NCC2CCN(C)CC2)nc(SCCCCCCCCCCCCCC)n1 [Compound S14S15D10] | 0.3% |
| CCCCCCCCCCCCCCCCSc1nc(NCCN(C)C)nc(SCCCCCCCCCCCCCC)n1 [Compound S14S16D1] | 0.0% |
| CCCCCCCCCCCCCCCCSc1nc(NCCN2CCOCC2)nc(SCCCCCCCCCCCCCC)n1 [Compound S14S16D2] | 0.0% |
| CCCCCCCCCCCCCCCCSc1nc(NCCN2CCCC2)nc(SCCCCCCCCCCCCCC)n1 [Compound S14S16D3] | 0.4% |
| CCCCCCCCCCCCCCCCSc1nc(NCCN2CCCCC2)nc(SCCCCCCCCCCCCCC)n1 [Compound S14S16D4] | 0.6% |
| CCCCCCCCCCCCCCCCSc1nc(NCCN2CCN(C)CC2)nc(SCCCCCCCCCCCCCC)n1 [Compound S14S16D5] | 0.1% |
| CCCCCCCCCCCCCCCCSc1nc(NCCCN(C)C)nc(SCCCCCCCCCCCCCC)n1 [Compound S14S16D6] | 1.2% |
| CCCCCCCCCCCCCCCCSc1nc(NCCN(CC)CC)nc(SCCCCCCCCCCCCCC)n1 [Compound S14S16D7] | 1.1% |
| CCCCCCCCCCCCCCCCSc1nc(NCCCN2CCOCC2)nc(SCCCCCCCCCCCCCC)n1 [Compound S14S16D8] | 0.0% |
| CCCCCCCCCCCCCCCCSc1nc(NCCCN2CCN(C)CC2)nc(SCCCCCCCCCCCCCC)n1 [Compound S14S16D9] | 0.0% |
| CCCCCCCCCCCCCCCCSc1nc(NCC2CCN(C)CC2)nc(SCCCCCCCCCCCCCC)n1 [Compound S14S16D10] | 2.7% |
| CCCCCCCCCCCCCCCCCCSc1nc(NCCN(C)C)nc(SCCCCCCCCCCCCCC)n1 [Compound S14S18D1] | 0.0% |

| SMILES | Absolute DNA transfection efficiency in HEK293 cells |
| --- | --- |
| CCCCCCCCCCCCCCCCCCSc1nc(NCCN2CCOCC2)nc(SCCCCCCCCCCCCCC)n1 [Compound S14S18D2] | 0.2% |
| CCCCCCCCCCCCCCCCCCSc1nc(NCCN2CCCC2)nc(SCCCCCCCCCCCCCC)n1 [Compound S14S18D3] | 2.8% |
| CCCCCCCCCCCCCCCCCCSc1nc(NCCN2CCCCC2)nc(SCCCCCCCCCCCCCC)n1 [Compound S14S18D4] | 2.5% |
| CCCCCCCCCCCCCCCCCCSc1nc(NCCN2CCN(C)CC2)nc(SCCCCCCCCCCCCCC)n1 [Compound S14S18D5] | 0.2% |
| CCCCCCCCCCCCCCCCCCSc1nc(NCCCN(C)C)nc(SCCCCCCCCCCCCCC)n1 [Compound S14S18D6] | 1.2% |
| CCCCCCCCCCCCCCCCCCSc1nc(NCCN(CC)CC)nc(SCCCCCCCCCCCCCC)n1 [Compound S14S18D7] | 0.9% |
| CCCCCCCCCCCCCCCCCCSc1nc(NCCCN2CCOCC2)nc(SCCCCCCCCCCCCCC)n1 [Compound S14S18D8] | 0.2% |
| CCCCCCCCCCCCCCCCCCSc1nc(NCCCN2CCN(C)CC2)nc(SCCCCCCCCCCCCCC)n1 [Compound S14S18D9] | 0.5% |
| CCCCCCCCCCCCCCCCCCSc1nc(NCC2CCN(C)CC2)nc(SCCCCCCCCCCCCCC)n1 [Compound S14S18D10] | 1.7% |
| CCCCCCCCCCCCCCCSc1nc(NCCN(C)C)nc(SCCCCCCCCCCCCCCC)n1 [Compound S15S15D1] | 1.0% |
| CCCCCCCCCCCCCCCSc1nc(NCCN2CCOCC2)nc(SCCCCCCCCCCCCCCC)n1 [Compound S15S15D2] | 0.0% |
| CCCCCCCCCCCCCCCSc1nc(NCCN2CCCC2)nc(SCCCCCCCCCCCCCCC)n1 [Compound S15S15D3] | 0.0% |
| CCCCCCCCCCCCCCCSc1nc(NCCN2CCCCC2)nc(SCCCCCCCCCCCCCCC)n1 [Compound S15S15D4] | 1.5% |
| CCCCCCCCCCCCCCCSc1nc(NCCN2CCN(C)CC2)nc(SCCCCCCCCCCCCCCC)n1 [Compound S15S15D5] | 0.3% |
| CCCCCCCCCCCCCCCSc1nc(NCCCN(C)C)nc(SCCCCCCCCCCCCCCC)n1 [Compound S15S15D6] | 0.4% |
| CCCCCCCCCCCCCCCSc1nc(NCCN(CC)CC)nc(SCCCCCCCCCCCCCCC)n1 [Compound S15S15D7] | 0.6% |
| CCCCCCCCCCCCCCCSc1nc(NCCCN2CCOCC2)nc(SCCCCCCCCCCCCCCC)n1 [Compound S15S15D8] | 0.0% |
| CCCCCCCCCCCCCCCSc1nc(NCCCN2CCN(C)CC2)nc(SCCCCCCCCCCCCCCC)n1 [Compound S15S15D9] | 0.4% |
| CCCCCCCCCCCCCCCSc1nc(NCC2CCN(C)CC2)nc(SCCCCCCCCCCCCCCC)n1 [Compound S15S15D10] | 1.0% |
| CCCCCCCCCCCCCCCCSc1nc(NCCN(C)C)nc(SCCCCCCCCCCCCCCC)n1 [Compound S15S16D1] | 1.7% |
